Reference: patent US20030129629A1, “Methods and compositions for the identification, assessment, prevention, and therapy of human cancers” (Millennium Pharmaceuticals, Inc., priority 2000, published 2003)
Where two headings read alike, the source gives them in different places.

Key:
[1] = test system: 60 cancer cell lines (NCI 60 cancer cell line series); assay: NCI-DTP in vitro cancer screen, sulforhodamine B (SRB) growth inhibition, 48 hour exposure; assay type: cell-based, human
Summary of the method: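 Potency is given as mean −log{GI50} from dose–response curves, manually binned into Low, Medium or High sensitivity. Sixty NCI-DTP tumour lines were treated 48 h with a duplicate, five-dose, ten-fold dilution series, and growth read by SRB staining of cell mass.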

[2] = test system: 60 cancer cell lines (NCI 60 cancer cell line series); settings: cited from earlier work

SMILES: COc1cccc2c1C(=O)c1c(O)c3c(c(O)c1C2=O)C[C@@](O)(C(C)=O)C[C@@H]3O[C@H]1C[C@H](N)[C@H](O)[C@H](C)O1 [Daunorubicin]
- classification of cell line as Low(1), Medium(2), High(3) sensitivity to compound ([1]; Breast BT-549 CL5013): 1
- classification of cell line as Low(1), Medium(2), High(3) sensitivity to compound ([1]; Breast MCF7(I) CL5001): 3
- classification of cell line as Low(1), Medium(2), High(3) sensitivity to compound ([1]; Breast MCF7/ADRr CL5002): 1
- classification of cell line as Low(1), Medium(2), High(3) sensitivity to compound ([1]; Breast MDA-MB-231 CL5005): 1
- classification of cell line as Low(1), Medium(2), High(3) sensitivity to compound ([1]; Breast MDA-MB-435 CL5011): 1
- classification of cell line as Low(1), Medium(2), High(3) sensitivity to compound ([1]; Breast MDA-N CL5012): 1
- classification of cell line as Low(1), Medium(2), High(3) sensitivity to compound ([1]; Breast T-47D CL5014): 2
- classification of cell line as Low(1), Medium(2), High(3) sensitivity to compound ([1]; CNS SF-268 CL12014): 2
- classification of cell line as Low(1), Medium(2), High(3) sensitivity to compound ([1]; CNS SF-295 CL12015): 2
- classification of cell line as Low(1), Medium(2), High(3) sensitivity to compound ([1]; CNS SNB-19 CL12002): 2
- classification of cell line as Low(1), Medium(2), High(3) sensitivity to compound ([1]; CNS SNB-75(I) CL12005): 2
- classification of cell line as Low(1), Medium(2), High(3) sensitivity to compound ([1]; CNS U251(I) CL12009): 2
- classification of cell line as Low(1), Medium(2), High(3) sensitivity to compound ([1]; Colon COLO-250 CL4010): 1
- classification of cell line as Low(1), Medium(2), High(3) sensitivity to compound ([1]; Colon HCC-2998 CL4002): 1
- classification of cell line as Low(1), Medium(2), High(3) sensitivity to compound ([1]; Colon HCT-15 CL4015): 1
- classification of cell line as Low(1), Medium(2), High(3) sensitivity to compound ([1]; Colon HCT-116 CL4003): 2
- classification of cell line as Low(1), Medium(2), High(3) sensitivity to compound ([1]; Colon HT29(I) CL4001): 2
- classification of cell line as Low(1), Medium(2), High(3) sensitivity to compound ([1]; Colon SW-620 CL4009): 2
- classification of cell line as Low(1), Medium(2), High(3) sensitivity to compound ([1]; Leukemia CCRF-CEM(I) CL7003): 3
- classification of cell line as Low(1), Medium(2), High(3) sensitivity to compound ([1]; Leukemia HL-60(I) CL7008): 3
- classification of cell line as Low(1), Medium(2), High(3) sensitivity to compound ([1]; Leukemia MOLT-4 CL7006): 3
- classification of cell line as Low(1), Medium(2), High(3) sensitivity to compound ([1]; Leukemia SR CL7019): 3
- classification of cell line as Low(1), Medium(2), High(3) sensitivity to compound ([1]; Melanoma M14 CL10014): 1
- classification of cell line as Low(1), Medium(2), High(3) sensitivity to compound ([1]; Melanoma MALME-3M CL10002): 2
- classification of cell line as Low(1), Medium(2), High(3) sensitivity to compound ([1]; Melanoma SK-MEL-5 CL10007): 2
- classification of cell line as Low(1), Medium(2), High(3) sensitivity to compound ([1]; Melanoma SK-MEL-28 CL10008): 1
- classification of cell line as Low(1), Medium(2), High(3) sensitivity to compound ([1]; Melanoma UACC-62 CL10020): 2
- classification of cell line as Low(1), Medium(2), High(3) sensitivity to compound ([1]; Melanoma UACC-257 CL10021): 1
- classification of cell line as Low(1), Medium(2), High(3) sensitivity to compound ([1]; NSCLC A549/ATCC CL1004): 2
- classification of cell line as Low(1), Medium(2), High(3) sensitivity to compound ([1]; NSCLC EKVX CL1008): 1
- classification of cell line as Low(1), Medium(2), High(3) sensitivity to compound ([1]; NSCLC HOP-62 CL1026): 2
- classification of cell line as Low(1), Medium(2), High(3) sensitivity to compound ([1]; NSCLC HOP-92 CL1029): 2
- sensitivity classification Low(1)/Medium(2)/High(3) ([1]; NSCLC NCI-H23(I) CL1001): 2
- classification of cell line as Low(1), Medium(2), High(3) sensitivity to compound ([1]; NSCLC NCI-H226 CL1013): 2
- sensitivity classification Low(1)/Medium(2)/High(3) ([1]; NSCLC NCI-H332M CL1017): 1
- sensitivity classification Low(1)/Medium(2)/High(3) ([1]; NSCLC NCI-H460 CL1021): 3
- sensitivity classification Low(1)/Medium(2)/High(3) ([1]; NSCLC NCI-H522 CL1003): 2
- sensitivity classification Low(1)/Medium(2)/High(3) ([1]; Ovarian IGROV1 CL6010): 2
- sensitivity classification Low(1)/Medium(2)/High(3) ([1]; Ovarian OVCAR-3 CL6001): 1
- sensitivity classification Low(1)/Medium(2)/High(3) ([1]; Ovarian OVCAR-4 CL6002): 1
- sensitivity classification Low(1)/Medium(2)/High(3) ([1]; Ovarian OVCAR-5 CL6003): 1
- sensitivity classification Low(1)/Medium(2)/High(3) ([1]; Ovarian OVCAR-8 CL6005): 2
- sensitivity classification Low(1)/Medium(2)/High(3) ([1]; Prostate DU-145 CL11003): 2
- sensitivity classification Low(1)/Medium(2)/High(3) ([1]; Prostate PC-3(I) CL11001): 2
- sensitivity classification Low(1)/Medium(2)/High(3) ([1]; Renal 786-0 CL9018): 2
- sensitivity classification Low(1)/Medium(2)/High(3) ([1]; Renal A498 CL9013): 1
- sensitivity classification Low(1)/Medium(2)/High(3) ([1]; Renal ACHN CL9023): 2
- sensitivity classification Low(1)/Medium(2)/High(3) ([1]; Renal CAKI-1 CL9015): 2
- sensitivity classification Low(1)/Medium(2)/High(3) ([1]; Renal RXF-393 CL9016): 1
- sensitivity classification Low(1)/Medium(2)/High(3) ([1]; Renal SN12C CL9008): 2
- sensitivity classification Low(1)/Medium(2)/High(3) ([1]; Renal TK10 CL9024): 1
- sensitivity classification Low(1)/Medium(2)/High(3) ([1]; Renal UO-31 CL9004): 1
- −Log (GI50) ([2]; Breast MCF7/ADRr CL5002): 5.3
- −Log (GI50) ([2]; Colon COLO-250 CL4010): 6.8
- −Log (GI50) ([2]; NSCLC NCI-H226 CL1013): 7.5
- −Log (GI50) ([2]; Renal UO-31 CL9004): 6.4

SMILES: COc1cccc2c1C(=O)c1c(O)c3c(c(O)c1C2=O)C[C@@](O)(C(=O)CO)C[C@@H]3OC1CC(N)CC(C)O1.Cl (stereo partly shown) [Deoxydoxorubicin]
- classification of cell line as Low(1), Medium(2), High(3) sensitivity to compound ([1]; Breast BT-549 CL5013): 2
- classification of cell line as Low(1), Medium(2), High(3) sensitivity to compound ([1]; Breast MCF7/ADRr CL5002): 1
- classification of cell line as Low(1), Medium(2), High(3) sensitivity to compound ([1]; Breast MDA-N CL5012): 2
- classification of cell line as Low(1), Medium(2), High(3) sensitivity to compound ([1]; CNS SF-268 CL12014): 2
- classification of cell line as Low(1), Medium(2), High(3) sensitivity to compound ([1]; CNS SF-295 CL12015): 2
- classification of cell line as Low(1), Medium(2), High(3) sensitivity to compound ([1]; CNS SF-539 CL12016): 2
- classification of cell line as Low(1), Medium(2), High(3) sensitivity to compound ([1]; CNS SNB-19 CL12002): 2
- classification of cell line as Low(1), Medium(2), High(3) sensitivity to compound ([1]; CNS SNB-75(I) CL12005): 2
- classification of cell line as Low(1), Medium(2), High(3) sensitivity to compound ([1]; CNS U251(I) CL12009): 2
- classification of cell line as Low(1), Medium(2), High(3) sensitivity to compound ([1]; Colon COLO-250 CL4010): 2
- classification of cell line as Low(1), Medium(2), High(3) sensitivity to compound ([1]; Colon HCT-15 CL4015): 1
- classification of cell line as Low(1), Medium(2), High(3) sensitivity to compound ([1]; Colon HT29(I) CL4001): 2
- classification of cell line as Low(1), Medium(2), High(3) sensitivity to compound ([1]; Colon KM12 CL4017): 2
- classification of cell line as Low(1), Medium(2), High(3) sensitivity to compound ([1]; Leukemia CCRF-CEM(I) CL7003): 2
- classification of cell line as Low(1), Medium(2), High(3) sensitivity to compound ([1]; Leukemia K562(I) CL7005): 2
- classification of cell line as Low(1), Medium(2), High(3) sensitivity to compound ([1]; Leukemia RPMI-8226(I) CL7010): 2
- classification of cell line as Low(1), Medium(2), High(3) sensitivity to compound ([1]; Leukemia SR CL7019): 3
- classification of cell line as Low(1), Medium(2), High(3) sensitivity to compound ([1]; Melanoma LOX IMVI CL10001): 2
- classification of cell line as Low(1), Medium(2), High(3) sensitivity to compound ([1]; Melanoma M14 CL10014): 2
- classification of cell line as Low(1), Medium(2), High(3) sensitivity to compound ([1]; Melanoma MALME-3M CL10002): 2
- classification of cell line as Low(1), Medium(2), High(3) sensitivity to compound ([1]; Melanoma SK-MEL-28 CL10008): 1
- sensitivity classification Low(1)/Medium(2)/High(3) ([1]; NSCLC NCI-H23(I) CL1001): 2
- sensitivity classification Low(1)/Medium(2)/High(3) ([1]; NSCLC NCI-H522 CL1003): 2
- sensitivity classification Low(1)/Medium(2)/High(3) ([1]; Ovarian IGROV1 CL6010): 2
- sensitivity classification Low(1)/Medium(2)/High(3) ([1]; Ovarian OVCAR-3 CL6001): 2
- sensitivity classification Low(1)/Medium(2)/High(3) ([1]; Ovarian OVCAR-4 CL6002): 2
- sensitivity classification Low(1)/Medium(2)/High(3) ([1]; Ovarian OVCAR-8 CL6005): 2
- sensitivity classification Low(1)/Medium(2)/High(3) ([1]; Ovarian SK-OV-3 CL6011): 2
- sensitivity classification Low(1)/Medium(2)/High(3) ([1]; Prostate DU-145 CL11003): 2
- sensitivity classification Low(1)/Medium(2)/High(3) ([1]; Prostate PC-3(I) CL11001): 2
- sensitivity classification Low(1)/Medium(2)/High(3) ([1]; Renal A498 CL9013): 2
- sensitivity classification Low(1)/Medium(2)/High(3) ([1]; Renal SN12C CL9008): 2
- sensitivity classification Low(1)/Medium(2)/High(3) ([1]; Renal TK10 CL9024): 1
- sensitivity classification Low(1)/Medium(2)/High(3) ([1]; Renal UO-31 CL9004): 1
- −Log (GI50) ([2]; CNS SF-268 CL12014): 7.3
- −Log (GI50) ([2]; CNS U251(I) CL12009): 7.6
- −Log (GI50) ([2]; Colon HT29(I) CL4001): 7.5
- −Log (GI50) ([2]; Melanoma UACC-62 CL10020): 7.6
- −Log (GI50) ([2]; NSCLC HOP-92 CL1029): 7.4
- −Log (GI50) ([2]; Ovarian SK-OV-3 CL6011): 7.3
- −Log (GI50) ([2]; Prostate DU-145 CL11003): 7.6
